The source made the active and inactive calls. The calls are words filed in the database; no cut-off is given here.
Legend:
Staphylococcus aureus [1] = experiment: Antibiofilm activity against Methicillin resistant Staphylococcus aureus ATCC 43300 assessed as inhibition of biofilm formation at 5 uM incubated for 48 hrs by crystal violet staining based microplate reader analysis; type: functional, organism-based
Staphylococcus aureus [2] = experiment: Antibacterial activity against Methicillin resistant Staphylococcus aureus ATCC 43300 assessed as reduction in bacterial growth at 2 to 5 uM; type: functional, organism-based; settings: dose 2-5 µM
Staphylococcus aureus [3] = experiment: Antibacterial activity against Staphylococcus aureus infected in male Sprague-Dawley rat wound model assessed as wound closure at 2 uM administered every 2 days and measured on day 4 relative to control; type: functional; settings: time 4 day
Staphylococcus aureus [4] = experiment: Antibacterial activity against Methicillin resistant Staphylococcus aureus infected in male Sprague-Dawley rat wound model assessed as wound closure at 2 uM administered every 2 days and measured on day 10 (reference value: 66.84%); type: functional; settings: time 10 day
Staphylococcus aureus [5] = experiment: Antibacterial activity against Staphylococcus aureus infected in male Sprague-Dawley rat wound model assessed as wound healing at 2 uM administered every 2 days and measured after 10 days; type: functional, organism-based; settings: time 10.0 day
Staphylococcus aureus [6] = experiment: Antibacterial activity against Staphylococcus aureus infected in male Sprague-Dawley rat wound model assessed as wound healing with newly formed epidermal tissues at 2 uM administered every 2 days and measured after 10 days; type: functional, organism-based; settings: time 10.0 day
Staphylococcus aureus [7] = experiment: Antimicrobial activity against Staphylococcus aureus ATCC 29213 assessed as inhibition of microbial growth at 80 uM incubated for 10 hrs by spectrophotometric analysis; type: functional, organism-based
Staphylococcus aureus [8] = experiment: Antimicrobial activity against Staphylococcus aureus ATCC 29213 assessed as appearance of deformed bacteria at 20 uM incubated for 2 hrs by SEM analysis; type: functional, organism-based
Staphylococcus aureus [9] = experiment: Antimicrobial activity against Staphylococcus aureus ATCC 29213 assessed as reduction in bacterial survival at 20 uM incubated for 8 hrs by spectrophotometric analysis relative to control; type: functional
Staphylococcus aureus [10] = experiment: Antimicrobial activity against Staphylococcus aureus ATCC 29213 assessed as appearance of wrinkled bacteria by measuring leakage at 20 uM incubated for 2 hrs by SEM analysis; type: functional, organism-based
Staphylococcus aureus [11] = experiment: Antimicrobial activity against Staphylococcus aureus ATCC 29213 assessed as appearance of damaged bacteria by measuring leakage at 20 uM incubated for 2 hrs by SEM analysis; type: functional, organism-based
Staphylococcus aureus [12] = experiment: Antimicrobial activity against Staphylococcus aureus ATCC 29213 assessed as large area of intracellular content at 20 uM incubated for 2 hrs by SEM analysis; type: functional, organism-based
Staphylococcus aureus [13] = experiment: Antibiofilm activity against Staphylococcus aureus ATCC 29213 assessed as inhibition of biofilm formation at 5 uM incubated for 48 hrs by crystal violet staining based microplate reader analysis; type: functional, organism-based
Staphylococcus aureus [14] = experiment: Antibiofilm activity against Staphylococcus aureus ATCC 29213 assessed as biofilm eradication at 10 uM incubated for 48 hrs by crystal violet staining based microplate reader analysis relative to control; type: functional
Staphylococcus aureus [15] = experiment: Antibiofilm activity against Staphylococcus aureus ATCC 29213 assessed as damaged bacterial cells by measuring red fluorescence at 20 uM incubated for 12 hrs by SYTO9/PI staining based confocal laser scanning microscopic analysis; type: functional, organism-based
Staphylococcus aureus [16] = experiment: Antibiofilm activity against Staphylococcus aureus ATCC 29213 assessed as increase in green fluorescence at 5 uM incubated for 12 hrs by SYTO9/PI staining based confocal laser scanning microscopic analysis; type: functional, organism-based
Staphylococcus aureus [17] = experiment: Antimicrobial activity against Staphylococcus aureus ATCC 29213 assessed as intracellular content leakage at 20 uM incubated for 2 hrs by SEM analysis; type: functional, organism-based
[18] = tested on: Aggregatibacter actinomycetemcomitans; experiment: Antibacterial activity against Actinobacillus actinomycetemcomitans ATCC 43717 incubated for 18 hrs; type: functional
Escherichia coli [19] = experiment: Antibacterial activity against Escherichia coli ATCC 25922 incubated for 18 hrs; type: functional
Staphylococcus aureus [20] = experiment: Antibacterial activity against Methicillin resistant Staphylococcus aureus ATCC 43300 incubated for 18 hrs; type: functional
Streptococcus mutans [21] = experiment: Antibacterial activity against Streptococcus mutans ATCC 25175 incubated for 18 hrs; type: functional
[22] = Hemolytic activity in rabbit RBC assessed as hemolytic rate at 32 uM incubated for 1 hrs by spectrophotometric analysis; type: toxicity, cell-based, Oryctolagus cuniculus, Erythrocyte; settings: red blood cells (RBC), read-out: Activity
MC3T3-E1 [23] = experiment: Cytotoxicity against mouse MC3T3-E1 cells assessed as reduction in cell viability at 2 uM incubated for 2 days by CCK-8 assay relative to control; type: toxicity, cell-based; settings: mc3t3-e1, 48 h, time 2 day
Staphylococcus aureus [24] = experiment: Antimicrobial activity against Staphylococcus aureus ATCC 29213 assessed as inhibition of microbial growth at 5 uM incubated for 10 hrs by spectrophotometric analysis relative to control; type: functional; set-up: scale not given: the % may be the effect or the level left
Staphylococcus aureus [25] = experiment: Antimicrobial activity against Staphylococcus aureus ATCC 29213 assessed as reduction in bacterial survival at 5 uM incubated for 2 hrs by spectrophotometric analysis relative to control; type: functional
Staphylococcus aureus [26] = experiment: Antimicrobial activity against Staphylococcus aureus ATCC 29213 assessed as reduction in bacterial survival at 5 uM incubated for 4 hrs by spectrophotometric analysis relative to control; type: functional
Staphylococcus aureus [27] = experiment: Antimicrobial activity against Staphylococcus aureus ATCC 29213 assessed as reduction in bacterial survival at 5 uM incubated for 8 hrs by spectrophotometric analysis relative to control; type: functional
Staphylococcus aureus [28] = experiment: Antimicrobial activity against Staphylococcus aureus ATCC 29213 assessed as appearance of damaged bacteria at 5 uM incubated for 2 hrs by SEM analysis relative to control; type: functional
Staphylococcus aureus [29] = experiment: Antimicrobial activity against Staphylococcus aureus ATCC 29213 assessed as disappearance of normal shape at 20 uM incubated for 2 hrs by SEM analysis; type: functional, organism-based
Staphylococcus aureus [30] = experiment: Antimicrobial activity against Staphylococcus aureus ATCC 29213 assessed as appearance of intracellular content in whole area at 20 uM incubated for 2 hrs by SEM analysis; type: functional, organism-based
Staphylococcus aureus [31] = experiment: Antibiofilm activity against Staphylococcus aureus ATCC 29213 assessed as inhibition of biofilm formation at 2 uM incubated for 48 hrs by crystal violet staining based microplate reader analysis; type: functional, organism-based
Staphylococcus aureus [32] = experiment: Antibiofilm activity against Staphylococcus aureus ATCC 29213 assessed as disappearance of colony formation at 2 uM incubated for 48 hrs by crystal violet staining based microplate reader analysis; type: functional, organism-based
Staphylococcus aureus [33] = experiment: Antibiofilm activity against Staphylococcus aureus ATCC 29213 assessed as damaged bacterial cells by measuring red fluorescence at 5 uM incubated for 12 hrs by SYTO9/PI staining based confocal laser scanning microscopic analysis; type: functional, organism-based
[34] = tested on: Aggregatibacter actinomycetemcomitans; experiment: Bactericidal activity against Actinobacillus actinomycetemcomitans ATCC 43717 incubated for 18 hrs; type: functional
Escherichia coli [35] = experiment: Bactericidal activity against Escherichia coli ATCC 25922 incubated for 18 hrs; type: functional
Staphylococcus aureus [36] = experiment: Bactericidal activity against Methicillin resistant Staphylococcus aureus ATCC 43300 incubated for 18 hrs; type: functional
Streptococcus mutans [37] = experiment: Bactericidal activity against Streptococcus mutans ATCC 25175 incubated for 18 hrs; type: functional
Streptococcus mutans [38] = experiment: Antibiofilm activity against Streptococcus mutans ATCC 25175 assessed as inhibition of biofilm formation at 5 uM incubated for 48 hrs by crystal violet staining based microplate reader analysis; type: functional, organism-based
[39] = tested on: Aggregatibacter actinomycetemcomitans; experiment: Antibiofilm activity against Actinobacillus actinomycetemcomitans ATCC 43717 assessed as inhibition of biofilm formation at 5 uM incubated for 48 hrs by crystal violet staining based microplate reader analysis; type: functional, organism-based
Staphylococcus aureus [40] = experiment: Antibiofilm activity against Methicillin resistant Staphylococcus aureus ATCC 43300 assessed as reduction in colony count at 2 to 5 uM incubated for 24 hrs by CFU assay; type: functional, organism-based; settings: dose 2-5 µM
MC3T3-E1 [41] = experiment: Cytotoxicity against mouse MC3T3-E1 cells assessed as reduction in cell viability at > 10 uM incubated for 2 days by CCK-8 assay; type: toxicity, cell-based; settings: mc3t3-e1, 48 h, time 2 day
Staphylococcus aureus [42] = experiment: Antibacterial activity against Methicillin resistant Staphylococcus aureus infected in male Sprague-Dawley rat wound model assessed as wound closure at 2 uM administered every 2 days and measured on day 7 (reference value: 66.84%); type: functional; settings: time 7 day

**Q.** With `CCn1cc(C(=O)O)c(=O)c2cc(F)c(N3CCNCC3)cc21` as the molecule, how does the Activity (Staphylococcus aureus [1]) read?
**A.** Active; Weaker Inhibition Of Biofilm Observed

**Q.** And the Activity (Staphylococcus aureus [2])?
**A.** inactive

**Q.** For `CO[C@@]1(NC(=O)Cc2cccs2)C(=O)N2C(C(=O)O)=C(COC(N)=O)CS[C@@H]21` [CEFOXITIN], which Activity (Staphylococcus aureus [1]) is on record?
**A.** Active; Weaker Inhibition Of Biofilm Observed

**Q.** And the Activity (Staphylococcus aureus [3])?
**A.** 66.13%

**Q.** And the Activity (Staphylococcus aureus [4])?
**A.** 77.35%

**Q.** And the Activity (Staphylococcus aureus [5])?
**A.** Active

**Q.** What about the Activity (Staphylococcus aureus [6]) of the same molecule?
**A.** Active

**Q.** What about the Activity (Staphylococcus aureus [2]) of the same molecule?
**A.** inactive

**Q.** Which Activity (Staphylococcus aureus [7]) does the source give for H-FGLDIIKKIAESF-NH2 here?
**A.** Active

**Q.** And the Activity (Staphylococcus aureus [8])?
**A.** Active

**Q.** Which Activity (Staphylococcus aureus [9]) does the source give for H-FGLKIIKKIAKSF-NH2 here?
**A.** 6.45%

**Q.** And the Activity (Staphylococcus aureus [10])?
**A.** Active

**Q.** What about the Activity (Staphylococcus aureus [11]) of the same molecule?
**A.** Active

**Q.** And the Activity (Staphylococcus aureus [12])?
**A.** Active

**Q.** What about the Activity (Staphylococcus aureus [13]) of the same molecule?
**A.** Active

**Q.** And the Activity (Staphylococcus aureus [14])?
**A.** 100%

**Q.** What about the Activity (Staphylococcus aureus [15]) of the same molecule?
**A.** Active

**Q.** And the Activity (Staphylococcus aureus [16])?
**A.** inactive

**Q.** Which Activity (Staphylococcus aureus [7]) does the source give for H-FLFDIIKKIAESG-NH2 here?
**A.** Active

**Q.** Which Activity (Staphylococcus aureus [8]) does the source give for H-GLFDIIKKIAEFS-NH2 here?
**A.** Active

**Q.** Which Activity (Staphylococcus aureus [17]) does the source give for H-GLFDIIKKIAESF-NH2 here?
**A.** Active

**Q.** And the MIC [18]?
**A.** ≥ 80 µM

**Q.** And the MIC (Escherichia coli [19])?
**A.** ≥ 80 µM

**Q.** And the MIC (Staphylococcus aureus [20])?
**A.** ≥ 80 µM

**Q.** And the MIC (Streptococcus mutans [21])?
**A.** ≥ 80 µM

**Q.** What about the hemolysis at 1 h, 32 µM [22] of the same molecule?
**A.** < 10%

**Q.** What about the Activity (MC3T3-E1 [23]) of the same molecule?
**A.** 91.16%

**Q.** With H-GLFKIIKKIAKSF-NH2 as the molecule, how does the Activity (Staphylococcus aureus [24]) read?
**A.** 100%

**Q.** What about the Activity (Staphylococcus aureus [9]) of the same molecule?
**A.** 6.7%

**Q.** And the Activity (Staphylococcus aureus [25])?
**A.** 11.54%

**Q.** And the Activity (Staphylococcus aureus [26])?
**A.** 8.89%

**Q.** And the Activity (Staphylococcus aureus [27])?
**A.** 8.24%

**Q.** And the Activity (Staphylococcus aureus [12])?
**A.** Active

**Q.** And the Activity (Staphylococcus aureus [28])?
**A.** 100%

**Q.** And the Activity (Staphylococcus aureus [29])?
**A.** Active

**Q.** And the Activity (Staphylococcus aureus [30])?
**A.** Active

**Q.** And the Activity (Staphylococcus aureus [31])?
**A.** Active

**Q.** And the Activity (Staphylococcus aureus [32])?
**A.** Active

**Q.** And the Activity (Staphylococcus aureus [15])?
**A.** Active

**Q.** And the Activity (Staphylococcus aureus [33])?
**A.** Active

**Q.** And the MIC [18]?
**A.** ≤ 10 µM

**Q.** What about the MIC (Escherichia coli [19]) of the same molecule?
**A.** ≤ 10 µM

**Q.** What about the MIC (Staphylococcus aureus [20]) of the same molecule?
**A.** ≤ 10 µM

**Q.** What about the MIC (Streptococcus mutans [21]) of the same molecule?
**A.** ≤ 10 µM

**Q.** What about the MBC [34] of the same molecule?
**A.** ≤ 10 µM

**Q.** And the MBC (Escherichia coli [35])?
**A.** ≤ 10 µM

**Q.** And the MBC (Staphylococcus aureus [36])?
**A.** ≤ 10 µM

**Q.** What about the MBC (Streptococcus mutans [37]) of the same molecule?
**A.** ≤ 10 µM

**Q.** And the Activity (Streptococcus mutans [38])?
**A.** Active

**Q.** What about the Activity [39] of the same molecule?
**A.** Active

**Q.** What about the Activity (Staphylococcus aureus [1]) of the same molecule?
**A.** Active

**Q.** What about the Activity (Staphylococcus aureus [40]) of the same molecule?
**A.** Active

**Q.** What about the hemolysis at 1 h, 32 µM [22] of the same molecule?
**A.** < 10%

**Q.** And the Activity (MC3T3-E1 [23])?
**A.** 85.49%

**Q.** What about the Activity (MC3T3-E1 [41]) of the same molecule?
**A.** Toxic

**Q.** What about the Activity (Staphylococcus aureus [3]) of the same molecule?
**A.** 68.16%

**Q.** And the Activity (Staphylococcus aureus [4])?
**A.** 100%

**Q.** And the Activity (Staphylococcus aureus [42])?
**A.** <=92.65%

**Q.** What about the Activity (Staphylococcus aureus [5]) of the same molecule?
**A.** Active

**Q.** What about the Activity (Staphylococcus aureus [6]) of the same molecule?
**A.** Active

**Q.** For H-GLFKIIKKIAKSG-NH2, which Activity (Staphylococcus aureus [8]) is on record?
**A.** Active

From ChEMBL document CHEMBL6182917, “Molecular-Level Strategy from Bottom-Up to Acquire High-Efficiency Antimicrobial Peptides” (J Med Chem, 2025)
